We go through one molecule from article PMC3814370, “Functional assignment of KEOPS/EKC complex subunits in the biosynthesis of the universal t^6A tRNA modification” (Nucleic Acids Research, 2013).

What all share (format): biochemical
The target of assay [1] is T1, PaKEOPS (Pcc1-Kae1-Bud32-Cgi121) (Pyrococcus abyssi, UniProt Q9UYB9).
T1 construct: recombinant from E. coli Rosetta2, His-tag purification; whole complex or reconstituted from Pcc1-Kae1 plus Bud32-Cgi121; homodimer of the heterotetramer; with tRNA N6-adenosine threonylcarbamoyltransferase; KEOPS complex Pcc1-like subunit; Regulatory protein Cgi121
The assay can be described thus: TLC of radiolabelled ATP hydrolysis. The following applies: 100 uM ATP, 50 °C, 30 min, with or without tRNA; reconstituted complex; labelled compound.

The target in assay [2] is T2, Bud32-Cgi121 binary complex (Pyrococcus abyssi, UniProt Q9UYB9).
T2 construct: recombinant from E. coli Rosetta2, His-tag purification; binary complex, monomeric form; with Regulatory protein Cgi121
T2 sequence (Q9UYB9 1-220): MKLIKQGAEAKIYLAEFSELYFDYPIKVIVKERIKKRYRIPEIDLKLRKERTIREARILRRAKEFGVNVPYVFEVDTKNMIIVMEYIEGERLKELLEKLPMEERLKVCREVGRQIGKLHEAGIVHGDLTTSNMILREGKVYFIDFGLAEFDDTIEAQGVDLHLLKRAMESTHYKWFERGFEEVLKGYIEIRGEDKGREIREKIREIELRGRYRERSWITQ
T2 sequence (Q9UZ62 1-171 partner): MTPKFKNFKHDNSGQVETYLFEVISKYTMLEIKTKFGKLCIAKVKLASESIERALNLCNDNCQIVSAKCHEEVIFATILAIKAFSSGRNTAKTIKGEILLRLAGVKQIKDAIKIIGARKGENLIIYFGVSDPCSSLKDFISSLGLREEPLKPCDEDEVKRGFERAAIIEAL
The assay can be described thus: autophosphorylation with gamma-32P ATP, SDS-PAGE phosphorimaging. The conditions noted are these: 25 uM cold ATP, 55 °C, 30 min; no ATPase activity in TLC assay; labelled compound.

The target of assay [3] is T1, PaKEOPS (Pcc1-Kae1-Bud32-Cgi121). The assay can be described thus: TLC of radiolabelled ATP hydrolysis. The following applies: 100 uM ATP, 50 °C, 30 min, with or without tRNA; reconstituted complex; labelled compound. The source holds these as a separate data set.
Assay [4] has the same target. The assay can be described thus: TLC of radiolabelled ATP hydrolysis. The following applies: 100 uM ATP, 50 °C, 30 min; stimulated by tRNA; labelled compound.
The target in assay [5] is T3, Kae1-Bud32 binary complex (Pyrococcus abyssi, UniProt Q9UYB9).
T3 construct: recombinant from E. coli Rosetta2, His-tag purification; binary complex, monomeric form; with tRNA N6-adenosine threonylcarbamoyltransferase
The assay can be described thus: TLC of radiolabelled ATP hydrolysis. The following applies: 100 uM ATP, 50 °C, 30 min; independent of tRNA; labelled compound.

Assay [6] addresses T4, PaKEOPS (Pcc1-Kae1-Bud32-Cgi121) (Pyrococcus abyssi, UniProt Q9UYB9, D127R).
T4 construct: recombinant from E. coli Rosetta2, His-tag purification; whole complex or reconstituted from Pcc1-Kae1 plus Bud32-Cgi121; homodimer of the heterotetramer; with tRNA N6-adenosine threonylcarbamoyltransferase; KEOPS complex Pcc1-like subunit; Regulatory protein Cgi121
The assay can be described thus: TLC of radiolabelled ATP hydrolysis. The following applies: 100 uM ATP, 50 °C, 30 min, with or without tRNA; reconstituted complex; labelled compound.

Assay [7] has as its target T5, Kae1-Bud32-Cgi121 ternary complex (Pyrococcus abyssi, UniProt Q9UYB9).
T5 construct: recombinant from E. coli Rosetta2, His-tag purification; ternary complex, monomeric form; with tRNA N6-adenosine threonylcarbamoyltransferase; Regulatory protein Cgi121
The assay can be described thus: TLC of radiolabelled ATP hydrolysis. The following applies: 100 uM ATP, 50 °C, 30 min; independent of tRNA; labelled compound.

The structures appear in SMILES notation.

In the case of `Nc1ncnc2c1ncn2[C@@H]1O[C@H](COP(=O)(O)OP(=O)(O)OP(=O)(O)O)[C@@H](O)[C@H]1O` [ATP], the “wild-type ATPase activity” value in assay [1] was “PaKEOPS (Kae1^D159A) behaved in the same manner as the wild-type PaKEOPS”. Also, in assay [2], the autophosphorylation entry is on record as “When the reaction mixture contained only Bud32–Cgi121, a significant autophosphorylation activity of Bud32 was observed”. In assay [3], the “normal ATPase activity” value is recorded as “the reconstituted mutant PaKEOPS exhibited normal ATPase activity”. For the same molecule, the ATPase activity result in assay [4] is recorded as “the ATPase activity of the whole PaKEOPS complex is stimulated by the presence of tRNA”; in assay [5], “binary complex Kae1–Bud32 exhibited a significant ATPase activity”; in assay [7] it was “we recorded a significant ATPase activity that was independent of tRNA”. Further, in assay [6], the “ATPase activity totally lost” value is “PaKEOPS (Bud32^D127R) totally lost the ATPase activity”.
